Results as given in ChEMBL document CHEMBL4270493, “Recent updates on third generation EGFR inhibitors and emergence of fourth generation EGFR inhibitors to combat C797S resistance” (Eur J Med Chem, 2017).

Experiments:
[1] = species on record: Homo sapiens; assay: Toxicity in patient with EGFR T790M mutant NSCLC assessed as induction of grade 3 QTc prolongation at 500 mg BID during phase 1/2 study; format: organism-based; conditions: in vivo
[2] = species on record: Homo sapiens; assay: Toxicity in patient with EGFR T790M mutant NSCLC assessed as drug discontinuation rate at 500 mg BID during phase 1/2 study; format: organism-based; conditions: in vivo
[3] = species on record: Homo sapiens; assay: Antitumor activity in patient with EGFR T790M mutant negative NSCLC assessed as overall response rate at 500 mg BID during phase 1/2 study; format: functional
[4] = species on record: Homo sapiens; assay: Antitumor activity in patient with EGFR T790M mutant NSCLC assessed as disease control rate at 500 mg BID during phase 1/2 study; format: functional
[5] = species on record: Homo sapiens; assay: Antitumor activity in patient with EGFR T790M mutant NSCLC assessed as objective response rate at 500 mg BID during phase 1/2 study; format: functional
[6] = species on record: Homo sapiens; assay: Toxicity in patient with EGFR T790M mutant NSCLC assessed as induction of grade 3 hyperglycemia at 500 mg BID during phase 1/2 study; format: organism-based; conditions: in vivo

## C=CC(=O)Nc1cccc(Nc2nc(Nc3ccc(N4CCN(C(C)=O)CC4)cc3OC)ncc2C(F)(F)F)c1 [ROCILETINIB]
[1]
  Activity: 2.5%
[2]
  Activity: 2.5%
[3]
  Activity: 37%
[4]
  Activity: 90%
[5]
  Activity: 60%
[6]
  Activity: 17%
